≈ marks a conversion by molar mass, not a printed value. Where “and” joins values, the source holds several entries; their conditions need not be identical. Equal values may be shown once.
How the values were obtained:
AChE [1] = assay: In vitro AChE inhibition, larval homogenate (Ellman); assay type: biochemical, Rhynchophorus ferrugineus; details: fourth-instar larvae preparation
Method: (§1) The R. ferrugineus were homogenized larvae in a buffer (sodium phosphate, 40 mM, and pH 7.4); then, sodium chloride (10 mM dissolved in 1% (w/v) triton X-100) was added. During centrifugation (Sigma 3–30 KS), the homogenate was chilled to 4 °C and spun at a speed of 5000 rpm (20 min). The supernatant was either immediately put into action for an enzymatic test or frozen and kept at […] for later use. Each test was repeated three times. The protein content was determined using the same protocol employed by Lowry with modification using protein extract (100 µL) combined with an alkaline copper solution and a Folin–Ciocalteu phenol reagent (2 mL and 200 µL, respectively). The intensity of the resulting blue hue was evaluated during 30 min of incubation at 25 °C. Using an ELISA plate reader and a BSA standard curve, we could calculate the protein concentration by analyzing the absorbance at 600 nm (Multiskan SkyHigh Microplate Spectrophotometer, Thermo Fisher Scientific, Waltham, MA, USA).
(§2) The enzyme AChE was assessed using a substrate of acetylthiocholine iodide and evaluated using 5,5′-dithiobis [2-nitrbenzoic acid] (DTNB), according to [94]. Each well contained a sodium phosphate buffer (140 µL) (pH: 8.0; 100 mM), DTNB (10 µL), extract (20 µL)/components at 1, 10, 50, 100, and 1000 µg/mL in DMSO and underwent 15 min of incubation at 25 °C. Acetylthiocholine (ATCh) was added to start the reaction (10 µL). The ATCh enzymatic hydrolysis produced a 5-thio-2-nitrobenzoate anion as a color (yellow) that was detected by measuring its wavelength, i.e., 412 nm, thereby allowing the researchers to track the rate of ATCh hydrolysis (15 min). Each response was performed three times on a microplate and examined using an ELISA plate reader to determine the 412 nm absorbance of the combination (Multiskan SkyHigh Microplate Spectrophotometer). The AChE-specific activity was measured as OD412/mg protein.h. based on observing the effect of raising the quantities of all of these compounds during the tests on the inhibition results, and the inhibitory concentration (IC50) was calculated. Then, a computer algorithm was used to determine the IC50 values (Version 9.01 of GraphPad Prism by Inc., 2020, San Diego, CA, USA).

[2] = tested on: fourth-instar larvae of R. ferrugineus; assay: Topical application (contact) to fourth-instar larvae (probit LD50); assay type: in vivo, Rhynchophorus ferrugineus; details: after 1 day of treatment, 95% confidence limits in brackets
Method: (§3) Over the course of 40 days, an O. basilicum cell suspension was cultivated in this investigation, and then the extract was obtained. […] Long segments of sugarcane stem were employed in the insect breeding lab at King Faisal University’s Research and Training Center to raise adult R. ferrugineus larvae. For this experiment, we used a topical application technique with larvae stored at 4 °C for five minutes to test the extract’s activity. Using a hand-operated micro-applicator (Burkard Manufacturing Co., Ltd., Hertfordshire, UK, collected using a […] micro-syringe), extracts at escalating ratios (10 µL) were injected into the dorsal surface of the larvae (Ito Corp.; MS-N50, Shizuoka, Japan). Five larvae per box in a series of three replicates were fed on sugarcane stem pieces measuring 10 cm in length. The LD50 was calculated by measuring the percentage of dead larvae at 24, 48, 72, and 96 h following a topical application. The antifeedant impact was determined in adults by giving them 10 cm sugarcane stem segments cut in half longitudinally. Long strips of sugarcane stem (32 cm^2) were immersed in the previous serial extract and compound concentration (10 mL) for ten seconds before they were dried in ambient air using a plastic box. Each box included a new pair of larvae (a male and a female). Ten sets of each treatment were performed. Data on how well the subjects ate were evaluated at 24, 48, 72, and 96 h.
(§4) The tissue culture parameters were calculated quantitatively from three independent sets of samples, and the mean SD was used to describe the findings. Toxicity parameters were determined quantitatively using a 10-replicate sample, and means and standard deviations were used to present the data. The median dosage obtained from a dose–response regression was used to calculate the LC50 value. By analyzing the comparative growth rate vs. the crude extract logarithm using least squares regression, the range of LC50 was calculated with 95% confidence. A simple variance study was performed on the increased weight and enzymatic activity data (ANOVA). The distinction between the means was accomplished using the Student–Newman–Keuls (SNK) test. Additionally, SPSS version 25 was used to find p < 0.05 significant deviations from the mean.

AChE [3] = assay: In vivo AChE inhibition in treated fourth-instar larvae; set-up: species or system Rhynchophorus ferrugineus; details: fourth-instar larvae treated 24 h
Method: as §2
(§5) Each enzyme’s in vivo impact was measured after treating larvae with an extract or pure chemicals. An inhibitor-free test combination served as a negative control. We determined the absorbance of the enzymes throughout a spectrum of wavelengths using a rapid reader for ELISA plates (Multiskan SkyHigh Microplate Spectrophotometer). Extracts and pure chemicals were used to treat R. ferrugineus larvae at previous serial concentrations, and their AChE, ACP, ALP, and GABA-T activity was tested in vivo using the methods outlined above. Larvae spent a day on leaf disks treated with chemicals or extract.

ALPs [4] = assay: In vitro ALP inhibition, larval homogenate; assay type: biochemical, Rhynchophorus ferrugineus; details: for IC50 ALPs in vitro: fourth-instar larvae preparation
Method: as §1
(§6) Activities of ACPs and ALPs were evaluated using a modified version of the Asakura technique. The ACP test required incubating 100 μL of crude enzyme in a buffer of 650 μL of sodium acetate (pH: 5.0; 50 mM with ACPs) or 250 μL of Tris–HCl (at 50 mM; pH: 8.0 with ALPs) and p-nitrophenyl phosphate (5.5 mM). For 30 min; the various mixes were kept at 37 °C for incubation. Thereafter, 500 μL of NaOH (0.5 N) stopped the reaction. Using an ELISA plate reader, we determined the mixture’s 415 nm absorbance value (Multiskan SkyHigh Microplate Spectrophotometer). The ACP- and ALP-specific activity was estimated as OD 415/mg protein·h.

R. ferrugineus adults = assay: Antifeedant/insecticidal test on adults with treated sugarcane stem (probit LC50); assay type: in vivo, Rhynchophorus ferrugineus; details: Rhynchophorus ferrugineus, 24 h, after 1 day of treatment, 95% confidence limits in brackets, read-out: LC50
Method: as §3, §4

ACPs [5] = assay: In vivo ACP inhibition in treated fourth-instar larvae; set-up: species or system Rhynchophorus ferrugineus; details: fourth-instar larvae treated 24 h
Method: as §6, §5

ALPs [6] = assay: In vivo ALP inhibition in treated fourth-instar larvae; set-up: species or system Rhynchophorus ferrugineus; details: fourth-instar larvae treated 24 h
Method: as §6, §5

ACPs [7] = assay: In vitro ACP inhibition, larval homogenate; assay type: biochemical, Rhynchophorus ferrugineus; details: fourth-instar larvae preparation
Method: as §1, §6

Compound: O=C(/C=C/c1ccc(O)c(O)c1)O[C@@H](C(=O)O)[C@@H](O)C(=O)O [Caftaric acid]
- IC50 AChE in vitro (AChE [1]): 156 ± 1.49 µg/mL
- IC50 AChE in vitro (AChE [1]; listed as caftaric acid): 156.4 µg/mL
- LD50 [2]: 18.79 (17.82–19.93) µg/Larvae
- LD50 ([2]; listed as caftaric acid): 18.79 µg/Larvae
- IC50 AChE in vivo (AChE [3]): 429 ± 1.49 µg/mL
- IC50 AChE in vivo (AChE [3]; listed as caftaric acid): 429.2 µg/mL
- IC50 ALP in vitro (ALPs [4]): 158 µg/mL (≈ 505 µM)
- IC50 ALPs in vitro (ALPs [4]; listed as caftaric acid): < 200 µg/mL
- LC50 (R. ferrugineus adults): 1490 µg/mL (≈ 4780 µM)

Compound: COc1cc(/C=C/C(=O)O[C@@H](C(=O)O)[C@@H](O)C(=O)O)ccc1O [Fertaric acid]
- IC50 AChE in vitro (AChE [1]): 124 ± 1.18 µg/mL
- IC50 AChE in vitro (AChE [1]; listed as fertaric acid): 123.6 µg/mL
- LD50 [2]: 19.46 (18.23–20.76) µg/Larvae
- LD50 ([2]; listed as fertaric acid): 19.46 µg/Larvae
- IC50 AChE in vivo (AChE [3]): 385 ± 1.18 µg/mL
- IC50 AChE in vivo (AChE [3]; listed as fertaric acid): 384.7 µg/mL
- IC50 ACPs in vivo (ACPs [5]; listed as fertaric acid): 349.4 µg/mL
- IC50 ALPs in vivo (ALPs [6]; listed as fertaric acid): 436.8 µg/mL
- IC50 ALP in vitro (ALPs [4]): 137 µg/mL (≈ 421 µM)
- IC50 ALPs in vitro (ALPs [4]; listed as fertaric acid): < 200 µg/mL
- IC50 ACPs in vitro (ACPs [7]; listed as fertaric acid): 133.5 µg/mL (≈ 409 µM)
- LC50 (R. ferrugineus adults): 1530 µg/mL (≈ 4680 µM)

Compound: O=C(O)C[C@H](C(=O)O)[C@@H](O)C(=O)O [Isocitric acid]
- IC50 AChE in vitro (AChE [1]): 197.3 µg/mL and 197 ± 1.76 µg/mL
- LD50 [2]: 22.7 (21.4–23.8) µg/Larvae
- LD50 ([2]; listed as isocitric acid): 22.7 µg/Larvae
- IC50 AChE in vivo (AChE [3]): 494 ± 1.76 µg/mL
- IC50 AChE in vivo (AChE [3]; listed as isocitric acid): 494.2 µg/mL
- IC50 ACPs in vivo (ACPs [5]; listed as isocitric acid): 415.6 µg/mL
- IC50 ALPs in vivo (ALPs [6]; listed as isocitric acid): 448.3 µg/mL
- IC50 ALP in vitro (ALPs [4]): 195 µg/mL (≈ 1010 µM)
- IC50 ALPs in vitro (ALPs [4]): < 200 µg/mL
- IC50 ACPs in vitro (ACPs [7]): 192.4 µg/mL (≈ 1000 µM)
- LC50 (R. ferrugineus adults): 1800 µg/mL (≈ 9340 µM)

Compound: O=C(/C=C/c1ccc(O)c(O)c1)O/C=C\c1ccc(O)c(O)c1 [Nepetoidin B]
- IC50 AChE in vitro (AChE [1]): 147 ± 1.38 µg/mL
- IC50 AChE in vitro (AChE [1]; listed as nepetoidin B): 147.2 µg/mL
- LD50 [2]: 11.5 (10.9–12.1) µg/Larvae
- LD50 ([2]; listed as nepetoidin B): 11.5 µg/Larvae
- IC50 AChE in vivo (AChE [3]): 282 ± 1.38 µg/mL
- IC50 AChE in vivo (AChE [3]; listed as nepetoidin B): 281.7 µg/mL
- IC50 ACPs in vivo (ACPs [5]; listed as nepetoidin B): < 330 µg/mL and 294.3 µg/mL
- IC50 ALPs in vivo (ALPs [6]; listed as nepetoidin B): 307.9 µg/mL
- IC50 ALP in vitro (ALPs [4]): 166 µg/mL (≈ 529 µM)
- IC50 ALPs in vitro (ALPs [4]; listed as nepetoidin B): < 200 µg/mL
- IC50 ACPs in vitro (ACPs [7]; listed as nepetoidin B): 154.2 µg/mL (≈ 491 µM)
- LC50 (R. ferrugineus adults): 1270 µg/mL (≈ 4050 µM)

Source: paper PMC10892409, “Exploring Ocimum basilicum’s Secondary Metabolites: Inhibition and Molecular Docking against Rhynchophorus ferrugineus for Optimal Action” (Plants, 2024)
